From ChEMBL document CHEMBL4808191, “Design, synthesis and biological evaluation of novel deoxyvasicinone-indole as multi-target agents for Alzheimer's disease” (Bioorg Med Chem Lett, 2021)
The source made the active and inactive calls. The rule behind the calls is not given here.

Tests used:
Acetylcholinesterase = Acetylcholinesterase (Electrophorus electricus, UniProt O42275); assay: Inhibition of electric eel AChE by Ellman's method
[1] = biological target: Acetylcholinesterase (Homo sapiens) (UniProt P22303); assay: Inhibition of AChE (unknown origin)-induced amyloid beta(1 to 42) aggregation by thioflavin-T fluorescence assay; settings: concentration not given here
Chain of Acetylcholinesterase (Homo sapiens) (P22303 whole entry): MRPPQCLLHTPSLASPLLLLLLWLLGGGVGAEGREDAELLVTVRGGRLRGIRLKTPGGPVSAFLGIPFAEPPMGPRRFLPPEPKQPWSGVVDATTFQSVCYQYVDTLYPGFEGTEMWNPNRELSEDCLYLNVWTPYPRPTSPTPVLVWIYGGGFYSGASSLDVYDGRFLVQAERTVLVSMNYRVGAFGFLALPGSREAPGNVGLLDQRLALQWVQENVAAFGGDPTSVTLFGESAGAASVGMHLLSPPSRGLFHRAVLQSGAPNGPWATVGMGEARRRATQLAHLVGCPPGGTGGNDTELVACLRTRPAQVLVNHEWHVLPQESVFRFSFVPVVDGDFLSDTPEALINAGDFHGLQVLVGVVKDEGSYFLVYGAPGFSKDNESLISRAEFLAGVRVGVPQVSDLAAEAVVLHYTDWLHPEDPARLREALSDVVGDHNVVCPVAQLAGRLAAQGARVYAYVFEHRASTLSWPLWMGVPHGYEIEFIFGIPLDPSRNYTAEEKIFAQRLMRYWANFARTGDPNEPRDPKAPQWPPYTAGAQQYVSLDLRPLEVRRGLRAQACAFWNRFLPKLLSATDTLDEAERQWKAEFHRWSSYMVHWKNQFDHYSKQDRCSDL

Cholinesterase = Cholinesterase (Equus caballus, UniProt P81908)
Chain of Cholinesterase (P81908 whole entry): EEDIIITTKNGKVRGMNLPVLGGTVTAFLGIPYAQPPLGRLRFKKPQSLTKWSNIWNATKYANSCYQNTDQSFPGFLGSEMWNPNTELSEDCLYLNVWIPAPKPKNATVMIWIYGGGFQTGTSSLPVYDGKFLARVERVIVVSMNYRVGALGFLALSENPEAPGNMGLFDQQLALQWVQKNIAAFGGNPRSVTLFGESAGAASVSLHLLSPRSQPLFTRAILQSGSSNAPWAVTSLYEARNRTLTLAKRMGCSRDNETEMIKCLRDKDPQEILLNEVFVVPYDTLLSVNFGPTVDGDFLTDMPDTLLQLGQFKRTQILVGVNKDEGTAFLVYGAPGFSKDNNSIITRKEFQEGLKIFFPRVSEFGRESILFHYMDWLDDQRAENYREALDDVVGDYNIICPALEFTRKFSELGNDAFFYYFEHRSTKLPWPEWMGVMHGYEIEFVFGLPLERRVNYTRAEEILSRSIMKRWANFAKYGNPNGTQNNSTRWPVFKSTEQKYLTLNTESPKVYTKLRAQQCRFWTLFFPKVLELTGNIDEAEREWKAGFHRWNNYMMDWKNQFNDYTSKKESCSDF
Description: Inhibition of equine serum BuChE by Ellman's method

[2] = biological target: Amyloid-beta precursor protein (Homo sapiens, UniProt P05067)
Chain of Amyloid-beta precursor protein (P05067 whole entry): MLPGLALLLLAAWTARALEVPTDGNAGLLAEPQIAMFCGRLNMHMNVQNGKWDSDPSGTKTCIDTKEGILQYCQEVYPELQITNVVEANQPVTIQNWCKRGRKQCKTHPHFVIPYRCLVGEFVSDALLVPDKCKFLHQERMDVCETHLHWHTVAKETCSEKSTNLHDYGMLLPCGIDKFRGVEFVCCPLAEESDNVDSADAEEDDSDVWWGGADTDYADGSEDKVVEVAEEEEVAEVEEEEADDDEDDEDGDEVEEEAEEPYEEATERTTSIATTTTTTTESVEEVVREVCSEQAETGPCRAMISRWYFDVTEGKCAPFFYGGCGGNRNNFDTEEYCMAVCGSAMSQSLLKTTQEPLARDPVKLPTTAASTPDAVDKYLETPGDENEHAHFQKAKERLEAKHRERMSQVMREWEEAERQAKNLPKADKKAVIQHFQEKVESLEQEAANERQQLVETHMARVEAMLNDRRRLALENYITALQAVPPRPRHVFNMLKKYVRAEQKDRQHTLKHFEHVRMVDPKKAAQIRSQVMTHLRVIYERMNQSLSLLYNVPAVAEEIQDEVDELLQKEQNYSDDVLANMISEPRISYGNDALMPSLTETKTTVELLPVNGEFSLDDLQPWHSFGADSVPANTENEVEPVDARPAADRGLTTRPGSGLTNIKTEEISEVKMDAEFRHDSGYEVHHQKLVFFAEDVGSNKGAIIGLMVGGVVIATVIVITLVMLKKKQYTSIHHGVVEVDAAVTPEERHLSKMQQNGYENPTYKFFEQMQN

[3] = biological target: Acetylcholinesterase (Homo sapiens) (UniProt P22303); assay: Mixed type inhibition of AChE (unknown origin) assessed as decrease in Vmax by Lineweaver-Burk plot analysis
[4] = biological target: Acetylcholinesterase (Homo sapiens) (UniProt P22303); assay: Mixed type inhibition of AChE (unknown origin) assessed as increase in Km by Lineweaver-Burk plot analysis
PC-12 = assay: Cytotoxicity against rat PC12 cells assessed as effect on cell viability at <12.5 uM by CCK8 assay; assay type: cell-based
BV-2 = assay: Cytotoxicity against mouse BV-2 cells assessed as effect on cell viability at <12.5 uM by CCK8 assay; assay type: cell-based

Chain of Acetylcholinesterase (O42275 whole entry): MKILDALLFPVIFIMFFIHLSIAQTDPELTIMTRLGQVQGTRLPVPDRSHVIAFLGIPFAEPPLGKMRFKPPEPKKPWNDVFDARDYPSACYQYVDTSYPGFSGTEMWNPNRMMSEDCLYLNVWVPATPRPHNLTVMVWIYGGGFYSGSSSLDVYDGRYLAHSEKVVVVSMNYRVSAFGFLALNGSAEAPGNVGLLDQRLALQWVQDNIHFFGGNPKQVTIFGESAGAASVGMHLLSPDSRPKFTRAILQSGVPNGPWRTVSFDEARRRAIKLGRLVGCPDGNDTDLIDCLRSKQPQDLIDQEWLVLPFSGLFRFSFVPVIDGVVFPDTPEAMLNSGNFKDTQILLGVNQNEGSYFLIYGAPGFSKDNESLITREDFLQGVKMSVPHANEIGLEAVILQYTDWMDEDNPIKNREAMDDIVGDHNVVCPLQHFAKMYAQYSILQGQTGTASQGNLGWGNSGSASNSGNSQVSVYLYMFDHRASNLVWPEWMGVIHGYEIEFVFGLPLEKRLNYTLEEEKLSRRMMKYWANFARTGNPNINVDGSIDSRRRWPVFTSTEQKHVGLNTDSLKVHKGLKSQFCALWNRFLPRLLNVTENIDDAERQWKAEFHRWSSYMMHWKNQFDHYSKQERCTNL

| Compound | IC50 (Acetylcholinesterase) [nM] | inhibition [1] [%] | IC50 (Cholinesterase) [nM] | IC50 [2] [nM] | inhibition [3] | inhibition [4] | Activity (PC-12) | Activity (BV-2) |
| --- | --- | --- | --- | --- | --- | --- | --- | --- |
| O=C(Nc1ccc2nc3n(c(=O)c2c1)CCC3)c1cc2cc(Cl)ccc2[nH]1 | 260 | 52.1 | 770 | 1690 | – | – | – | – |
| O=C(Cc1cc2ccccc2[nH]1)Nc1ccc2nc3n(c(=O)c2c1)CCC3 | 980 | – | 1380 | 1620 | – | – | – | – |
| O=C(Nc1ccc2nc3n(c(=O)c2c1)CCC3)c1cc2cc(F)ccc2[nH]1 | 780 | 61.8 | 750 | 1560 | – | – | – | – |
| O=C(CCCc1cc2ccccc2[nH]1)Nc1ccc2nc3n(c(=O)c2c1)CCC3 | 6350 | – | 1600 | 5270 | – | – | – | – |
| O=C(Nc1ccc2nc3n(c(=O)c2c1)CCC3)c1cc2ccccc2[nH]1 | 1560 | – | 900 | 2160 | – | – | – | – |
| O=C(Nc1ccc2nc3n(c(=O)c2c1)CCC3)c1cc2ccccc2s1 | 2510 | – | 1900 | 2300 | – | – | – | – |
| COc1ccc2[nH]c(C(=O)Nc3cc4c(=O)n5c(nc4cc3C)CCC5)cc2c1 | 2080 | – | 5230 | 6100 | – | – | – | – |
| COc1ccc2[nH]c(C(=O)Nc3ccc4nc5n(c(=O)c4c3)CCC5)cc2c1 | 120 | 80 | 150 | 1210 | Active | Active | Non-Toxic | Non-Toxic |
| O=C(/C=C/c1cc2ccccc2[nH]1)Nc1ccc2nc3n(c(=O)c2c1)CCC3 | 1650 | – | 4470 | 3090 | – | – | – | – |
| Cc1cc2nc3n(c(=O)c2cc1NC(=O)c1cc2cc(Cl)ccc2[nH]1)CCC3 | 1080 | – | 4670 | 5100 | – | – | – | – |
| O=C(Nc1ccc2nc3n(c(=O)c2c1)CCC3)c1cc2ccccc2o1 | 1510 | – | 1850 | 3260 | – | – | – | – |
| Cc1cc2nc3n(c(=O)c2cc1NC(=O)c1cc2cc(F)ccc2[nH]1)CCC3 | 1350 | – | 1720 | 3270 | – | – | – | – |
